{"source": "BindingDB's records for PubMed 8394902", "about": "(Georgetown University, 1993)", "target": "Gamma-aminobutyric acid receptor subunit alpha-1 (Rattus norvegicus, UniProt P62813)", "sequence (P62813 whole entry)": "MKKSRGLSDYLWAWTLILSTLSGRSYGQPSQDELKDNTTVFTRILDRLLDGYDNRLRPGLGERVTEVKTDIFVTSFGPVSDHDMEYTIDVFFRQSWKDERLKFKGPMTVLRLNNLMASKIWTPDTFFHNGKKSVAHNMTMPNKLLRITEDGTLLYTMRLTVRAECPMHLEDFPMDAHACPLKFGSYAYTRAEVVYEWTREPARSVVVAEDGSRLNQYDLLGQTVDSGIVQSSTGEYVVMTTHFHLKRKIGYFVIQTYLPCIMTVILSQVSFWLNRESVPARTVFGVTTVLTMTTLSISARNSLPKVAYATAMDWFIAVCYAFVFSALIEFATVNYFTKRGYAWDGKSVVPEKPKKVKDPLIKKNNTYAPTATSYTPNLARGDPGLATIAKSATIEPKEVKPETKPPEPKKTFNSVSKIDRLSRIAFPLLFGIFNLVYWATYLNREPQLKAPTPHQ", "note": "“And” between values parts separate entries of the source, which are not always exact repeats. Identical values can stand only once."}
{"compound": "Cc1nnc2n1-c1ccc(Cl)cc1C(c1ccccc1)=NC2", "values": [{"measurement": "Ki", "value": "0.021 µM and 0.065 µM"}]}
